In the NIST ThermoML archive (doi:10.1021/je300153f):
Numbers after ± are expanded uncertainties.

Conditions: for mass density / electrical conductivity / viscosity: 101.33 kPa; for mass density / electrical conductivity / surface tension liquid-gas / viscosity: Liquid; for electrical conductivity: MP522 conductivity meter; for surface tension liquid-gas: Maximal bubble pressure; for viscosity: Capillary tube (Ostwald / Ubbelohde) method

CCCC[n+]1cccc(C)c1.O=S(=O)([N-]S(=O)(=O)C(F)(F)F)C(F)(F)F
mass density (278.15 K): 1439.9 ± 5.8 kg/m3 | electrical conductivity (278.15 K): 0.1 ± 0.002 S/m | mass density (283.15 K): 1435.7 ± 5.8 kg/m3 | electrical conductivity (283.15 K): 0.132 ± 0.003 S/m | surface tension liquid-gas (283.15 K): 29.2 ± 0.3 mN/m | mass density (288.15 K): 1431.5 ± 5.7 kg/m3 | electrical conductivity (288.15 K): 0.172 ± 0.004 S/m | surface tension liquid-gas (288.15 K): 28.8 ± 0.3 mN/m | mass density (293.15 K): 1427.1 ± 5.7 kg/m3 | electrical conductivity (293.15 K): 0.217 ± 0.005 S/m | surface tension liquid-gas (293.15 K): 28.4 ± 0.3 mN/m | mass density (298.15 K): 1422.6 ± 5.7 kg/m3 | viscosity (298.15 K): 63.2 ± 1.4 mPa·s | electrical conductivity (298.15 K): 0.272 ± 0.006 S/m | surface tension liquid-gas (298.15 K): 28.2 ± 0.3 mN/m | mass density (303.15 K): 1418.3 ± 5.7 kg/m3 | viscosity (303.15 K): 51.1 ± 1.1 mPa·s | electrical conductivity (303.15 K): 0.335 ± 0.007 S/m | surface tension liquid-gas (303.15 K): 27.8 ± 0.3 mN/m | mass density (308.15 K): 1414.2 ± 5.7 kg/m3 | viscosity (308.15 K): 41.4 ± 0.9 mPa·s | electrical conductivity (308.15 K): 0.409 ± 0.009 S/m | surface tension liquid-gas (308.15 K): 27.4 ± 0.3 mN/m | mass density (313.15 K): 1409.8 ± 5.7 kg/m3 | viscosity (313.15 K): 34 ± 0.8 mPa·s | electrical conductivity (313.15 K): 0.49 ± 0.01 S/m | surface tension liquid-gas (313.15 K): 27.2 ± 0.3 mN/m | mass density (318.15 K): 1405.1 ± 5.6 kg/m3 | viscosity (318.15 K): 28.4 ± 0.6 mPa·s | electrical conductivity (318.15 K): 0.576 ± 0.012 S/m | surface tension liquid-gas (318.15 K): 26.7 ± 0.3 mN/m | mass density (323.15 K): 1400.7 ± 5.6 kg/m3 | viscosity (323.15 K): 23.9 ± 0.5 mPa·s | electrical conductivity (323.15 K): 0.69 ± 0.014 S/m | surface tension liquid-gas (323.15 K): 26.4 ± 0.3 mN/m | mass density (328.15 K): 1396.4 ± 5.6 kg/m3 | viscosity (328.15 K): 20.3 ± 0.4 mPa·s | electrical conductivity (328.15 K): 0.796 ± 0.017 S/m | surface tension liquid-gas (328.15 K): 26.1 ± 0.3 mN/m | mass density (333.15 K): 1392.1 ± 5.6 kg/m3 | viscosity (333.15 K): 17.5 ± 0.4 mPa·s | electrical conductivity (333.15 K): 0.91 ± 0.019 S/m | surface tension liquid-gas (333.15 K): 25.8 ± 0.3 mN/m | mass density (338.15 K): 1387.6 ± 5.6 kg/m3 | viscosity (338.15 K): 15.2 ± 0.3 mPa·s | electrical conductivity (338.15 K): 1.03 ± 0.021 S/m | surface tension liquid-gas (338.15 K): 25.4 ± 0.3 mN/m | viscosity (343.15 K): 13 ± 0.3 mPa·s | electrical conductivity (343.15 K): 1.16 ± 0.024 S/m | viscosity (348.15 K): 11.3 ± 0.3 mPa·s | electrical conductivity (348.15 K): 1.3 ± 0.027 S/m | viscosity (353.15 K): 10 ± 0.2 mPa·s | electrical conductivity (353.15 K): 1.44 ± 0.029 S/m | Glass transition temperature (Glass, DTA): -82.3 ± 3 °C
